Test results as given in US20250171437A1 (Agios Pharmaceuticals,Inc., priority 2022, published 2025).

Molecular target: T1, human PAH with the R408W mutation (A375 R408W cells) (Homo sapiens, UniProt P00439, R408W)
T1 construct: expressed in transfected cells
T1 sequence (P00439 1-452 R408W): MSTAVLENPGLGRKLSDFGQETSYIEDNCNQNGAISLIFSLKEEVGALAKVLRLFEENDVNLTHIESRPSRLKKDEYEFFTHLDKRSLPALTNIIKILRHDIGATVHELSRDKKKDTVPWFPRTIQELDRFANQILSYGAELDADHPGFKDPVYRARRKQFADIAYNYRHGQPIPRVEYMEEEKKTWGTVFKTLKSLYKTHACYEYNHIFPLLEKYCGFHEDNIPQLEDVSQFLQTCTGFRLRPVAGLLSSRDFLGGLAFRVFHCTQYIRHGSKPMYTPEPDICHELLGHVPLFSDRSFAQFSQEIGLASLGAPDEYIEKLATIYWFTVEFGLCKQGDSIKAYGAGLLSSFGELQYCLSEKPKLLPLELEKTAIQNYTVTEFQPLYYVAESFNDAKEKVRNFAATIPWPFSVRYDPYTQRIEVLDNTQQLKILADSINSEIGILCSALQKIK
Experiment: Cell Based Phenylalanine Flux Assay
Conditions: 24 hrs with compound, then 20 μM sepiapterin and 800 μM 13C9,15N-Phenylalanine for 4 hours, 13C-Tyrosine by LC-MS, average where tested multiple times
Outline: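 A375 cells stably expressing human PAH R408W treated 24 h at 37° C with a 10-point 2-fold dose curve in duplicate, 0.5% DMSO. Then 20 μM sepiapterin and 800 μM 13C9,15N-Phe added for 4 h; 13C-Tyr in media measured by LC-MS to give AC50.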

[1] = A375 cells expressing R408W PAH

Molecule `O=C(c1ocnc1C(F)(F)F)N1CCc2[nH]cnc2[C@H]1c1nc2cc(F)ccc2o1` [Example 23, (S)-(4-(5-fluorobenzo[d]oxazol-2-yl)-6,7-dihydro-1H-imidazo[4,5-c]pyridin-5(4H)-yl)(4-(trifluoromethyl)oxazol-5-yl)methanone] has an AC50 (A375 R408W cells) of at most 0.5 µM.
Molecule `CN(C)c1cn2ncc(C(=O)N3CCc4[nH]cnc4[C@@H]3c3nc4cc(F)ccc4o3)c2cc1Cl` [Example 208, (R)-(5-chloro-6-(dimethylamino)pyrazolo[1,5-a]pyridin-3-yl)(4-(5-fluorobenzo[d]oxazol-2-yl)-6,7-dihydro-1H-imidazo[4,5-c]pyridin-5(4H)-yl)methanone] has an AC50 (A375 R408W cells) of 1 to 5 µM.
`Cc1ccc(F)c2nc([C@@H]3c4nc[nH]c4CCN3C(=O)c3oc(C(C)(C)O)nc3C(F)F)oc12` [Example 723, (S)-(4-(difluoromethyl)-2-(2-hydroxypropan-2-yl)oxazol-5-yl)(4-(4-fluoro-7-methylbenzo[d]oxazol-2-yl)-6,7-dihydro-1H-imidazo[4,5-c]pyridin-5(4H)-yl)methanone] was tested, and the AC50 (A375 R408W cells) was at most 0.5 µM.
With `COc1cc(F)c2oc([C@@H]3c4nc[nH]c4CCN3C(=O)c3oc(C(C)(C)O)nc3C(F)F)nc2c1` [Example 643, (S)-(4-(difluoromethyl)-2-(2-hydroxypropan-2-yl)oxazol-5-yl)(4-(7-fluoro-5-methoxybenzo[d]oxazol-2-yl)-6,7-dihydro-1H-imidazo[4,5-c]pyridin-5(4H)-yl)methanone] the AC50 (A375 R408W cells) was at most 0.5 µM.
`Cc1nc([C@@H](C)O)oc1C(=O)N1CCc2[nH]cnc2[C@@H]1c1nc2cccc(F)c2o1` [Example 218, ((R)-4-(7-fluorobenzo[d]oxazol-2-yl)-6,7-dihydro-1H-imidazo[4,5-c]pyridin-5(4H)-yl)(2-((R)-1-hydroxyethyl)-4-methyloxazol-5-yl)methanone] showed an AC50 (A375 R408W cells) of 1 to 5 µM.
For `O=C(Cc1cnn2ccccc12)N1CCc2[nH]cnc2C1c1nc2cc(F)ccc2o1` (stereo not shown), the AC50 [1] was at least 5 µM.
For `Cn1cc(-c2ncc(C(=O)N3CCc4[nH]cnc4C3c3nc4ccc(Br)cc4o3)o2)cn1` (stereo not shown), the AC50 [1] was at least 5 µM.
`Cn1cncc1-c1nnc(C(=O)N2CCc3[nH]cnc3C2c2nc3cccc(C(F)(F)F)c3o2)o1` (stereo not shown) gave an AC50 [1] of 1 to 5 µM.
For `O=C(c1cnn2cc(-c3ccccn3)ccc12)N1CCc2[nH]cnc2[C@H]1c1nc2cc(F)ccc2o1` [Example 81, (S)-(4-(5-fluorobenzo[d]oxazol-2-yl)-6,7-dihydro-1H-imidazo[4,5-c]pyridin-5(4H)-yl)(6-(pyridin-2-yl)pyrazolo[1,5-a]pyridin-3-yl)methanone], the AC50 (A375 R408W cells) was 0.5 to 1 µM.
Molecule `COc1cccc2nc([C@@H]3c4nc[nH]c4CCN3C(=O)c3cc(C(F)F)nn3C)oc12` [Example 777, (S)-(3-(difluoromethyl)-1-methyl-1H-pyrazol-5-yl)(4-(7-methoxybenzo[d]oxazol-2-yl)-6,7-dihydro-1H-imidazo[4,5-c]pyridin-5(4H)-yl)methanone] has an AC50 (A375 R408W cells) of at most 0.5 µM.
Work on `O=C(c1nnc(N2CCC(F)CC2)o1)N1CCc2[nH]cnc2C1c1nc2cc(F)ccc2o1` (stereo not shown) yielded an AC50 [1] of 1 to 5 µM.
Work on `O=C(c1ocnc1C(F)F)N1CCc2[nH]cnc2[C@@H]1c1nc2cc(Cl)ccc2o1` [Example 377, (R)-(4-(5-chlorobenzo[d]oxazol-2-yl)-6,7-dihydro-1H-imidazo[4,5-c]pyridin-5(4H)-yl)(4-(difluoromethyl)oxazol-5-yl)methanone] yielded an AC50 (A375 R408W cells) of 0.5 to 1 µM.
`Cc1cccc2nc([C@@H]3c4nc[nH]c4CCN3C(=O)c3cc(C(F)F)nn3C)oc12` [Example 735] showed an AC50 (A375 R408W cells) of at most 0.5 µM.
`O=C(c1nnc(-c2ccccn2)o1)N1CCc2[nH]cnc2[C@@H]1c1nc2ccc(F)c(F)c2o1` [Example 545, (R)-(4-(6,7-difluorobenzo[d]oxazol-2-yl)-6,7-dihydro-1H-imidazo[4,5-c]pyridin-5(4H)-yl)(5-(pyridin-2-yl)-1,3,4-oxadiazol-2-yl)methanone] showed an AC50 (A375 R408W cells) of 1 to 5 µM.
In the case of `Cn1nc(C(C)(C)C)nc1C(=O)N1CCc2[nH]cnc2C1c1nc2cccc(F)c2o1` (stereo not shown), the AC50 [1] is reported as 1 to 5 µM.
`CC(C)(O)c1nc(C(F)F)c(C(=O)N2CCc3[nH]cnc3C2c2nc3cc(F)ccc3o2)s1` (stereo not shown) showed an AC50 [1] of 1 to 5 µM.
With `CC(C)n1ncnc1C(=O)N1CCc2[nH]cnc2[C@@H]1c1nc2ccccc2o1` [Example 706, (R)-(4-(benzo[d]oxazol-2-yl)-6,7-dihydro-1H-imidazo[4,5-c]pyridin-5(4H)-yl)(1-isopropyl-1H-1,2,4-triazol-5-yl)methanone] the AC50 (A375 R408W cells) was 0.5 to 1 µM.
In the case of `O=C(CC1CC1)N1CCc2[nH]cnc2[C@@H]1c1nc2cc(F)ccc2o1` [Example 38, (R)-2-cyclopropyl-1-(4-(5-fluorobenzo[d]oxazol-2-yl)-6,7-dihydro-1H-imidazo[4,5-c]pyridin-5(4H)-yl)ethanone], the AC50 (A375 R408W cells) is reported as 1 to 5 µM.
For `Cn1cnc(-c2nc(C(F)(F)F)c(C(=O)N3CCc4[nH]cnc4[C@@H]3c3nc4cc(F)ccc4o3)o2)c1` [Example 789, (R)-(4-(5-fluorobenzo[d]oxazol-2-yl)-6,7-dihydro-1H-imidazo[4,5-c]pyridin-5(4H)-yl)(2-(1-methyl-1H-imidazol-4-yl)-4-(trifluoromethyl)oxazol-5-yl)methanone], the AC50 (A375 R408W cells) was 1 to 5 µM.
Molecule `O=C(c1nncn1C1CC1)N1CCc2[nH]cnc2C1c1nc2cccc(F)c2o1` (stereo not shown) has an AC50 [1] of 1 to 5 µM.
`CC(C)(O)c1nc(C(F)F)c(C(=O)N2CCc3[nH]cnc3[C@@H]2c2nc3cc(F)cc(F)c3o2)o1` [Example 308, (R)-(4-(5,7-difluorobenzo[d]oxazol-2-yl)-6,7-dihydro-1H-imidazo[4,5-c]pyridin-5(4H)-yl)(4-(difluoromethyl)-2-(2-hydroxypropan-2-yl)oxazol-5-yl)methanone] gave an AC50 (A375 R408W cells) of at most 0.5 µM.
Molecule `CC(C)(O)c1nc(C2CC2)c(C(=O)N2CCc3[nH]cnc3[C@@H]2c2nc3cc(F)ccc3o2)o1` [Example 558, (R)-(4-cyclopropyl-2-(2-hydroxypropan-2-yl)oxazol-5-yl)(4-(5-fluorobenzo[d]oxazol-2-yl)-6,7-dihydro-1H-imidazo[4,5-c]pyridin-5(4H)-yl)methanone] has an AC50 (A375 R408W cells) of 1 to 5 µM.
In the case of `Cc1cccc2nc([C@H]3c4nc[nH]c4CCN3C(=O)c3cnco3)oc12` [Example 612, (R)-(4-(7-methylbenzo[d]oxazol-2-yl)-6,7-dihydro-1H-imidazo[4,5-c]pyridin-5(4H)-yl)(oxazol-5-yl)methanone], the AC50 (A375 R408W cells) is reported as 1 to 5 µM.
Work on `O=C(c1cnn2cc(N3CCC(O)CC3)ccc12)N1CCc2[nH]cnc2C1c1nc2ccc(F)c(F)c2o1` (stereo not shown) yielded an AC50 [1] of 1 to 5 µM.
Work on `Cc1nc(-c2ccccn2)sc1C(=O)N1CCc2[nH]cnc2C1c1nc2cc(F)ccc2o1` (stereo not shown) yielded an AC50 [1] of at least 5 µM.
`O=C(c1ocnc1CC(F)F)N1CCc2[nH]cnc2[C@H]1c1nc2cc(F)ccc2o1` [Example 865, (S)-(4-(2,2-difluoroethyl)oxazol-5-yl)(4-(5-fluorobenzo[d]oxazol-2-yl)-6,7-dihydro-1H-imidazo[4,5-c]pyridin-5(4H)-yl)methanone] was tested, and the AC50 (A375 R408W cells) was at most 0.5 µM.
`O=C(c1ocnc1C(F)F)N1CCc2[nH]cnc2[C@@H]1c1nc2cc(Cl)cc(F)c2o1` [Example 607, (R)-(4-(5-chloro-7-fluorobenzo[d]oxazol-2-yl)-6,7-dihydro-1H-imidazo[4,5-c]pyridin-5(4H)-yl)(4-(difluoromethyl)oxazol-5-yl)methanone] was tested, and the AC50 (A375 R408W cells) was at most 0.5 µM.
Work on `Cn1ccc(-c2nnc(C(=O)N3CCc4[nH]cnc4C3c3nc4cc(C(F)(F)F)ccc4o3)o2)n1` (stereo not shown) yielded an AC50 [1] of 1 to 5 µM.
Molecule `Cc1ccc2nc(C3c4nc[nH]c4CCN3C(=O)Cc3nncs3)oc2c1` (stereo not shown) has an AC50 [1] of 1 to 5 µM.
Work on `Cn1nccc1C(=O)N1CCc2[nH]cnc2C1c1nc2cc(F)ccc2o1` (stereo not shown) yielded an AC50 [1] of 1 to 5 µM.
Molecule `O=C(c1cnn2cc(N3CCC(F)CC3)ccc12)N1CCc2[nH]cnc2C1c1nc2cc(F)ccc2o1` (stereo not shown) has an AC50 [1] of at least 5 µM.
